Assay results as given in the NIST ThermoML archive (doi:10.1021/acs.jced.7b00709).
± gives the expanded uncertainty stated by the source. One block for each compound: values may come before it.

Assay: xn = mol fraction of the nth substance listed
Conditions: 298.2 K, 100 kPa, Liquid, Pycnometric method

mass density (x1 = 0.06047): 1059.7 ± 1.3 kg/m3
Compound: Cc1ccc(-c2ncc(Cl)cc2-c2ccc(S(C)(=O)=O)cc2)cn1 [etoricoxib] + CC(O)CO

mass density (x1 = 0.03786): 805 ± 0.9 kg/m3
Compound: Cc1ccc(-c2ncc(Cl)cc2-c2ccc(S(C)(=O)=O)cc2)cn1 [etoricoxib] + CO

mass density (x1 = 1.58e-05): 994.8 ± 1 kg/m3
Compound: Cc1ccc(-c2ncc(Cl)cc2-c2ccc(S(C)(=O)=O)cc2)cn1 [etoricoxib] + O

mass density (x1 = 0.05656): 1298 ± 1.6 kg/m3
Compound: Cc1ccc(-c2ncc(Cl)cc2-c2ccc(S(C)(=O)=O)cc2)cn1 [etoricoxib] + OCC(O)CO
